Assay results from US20100099762A1, “COMBINATION THERAPY” (THE MENTAL HEALTH RESEARCH INSTITUTE OF VICTORIA, priority 2006, published 2010).
Marks after values point to notes of the source that are not given here.

How the values were obtained:
schizophrenia = experiment: Randomised double blind multicentre placebo controlled trial of NAC in combination with an antipsychotic agent in schizophrenia; format: in vivo, human
Excerpt: There is preclinical evidence of a reduction in antioxidant defences in schizophrenia, particularly a reduction in glutathione, which is a primary endogenous antioxidant defence. N-acetyl cysteine (NAC) is a bioavailable precursor of glutathione. This Example is a randomised double blind multicentre placebo controlled trial of the use of NAC in combination with an antipsychotic agent in the treatment of schizophrenia. A total of 140 individuals were randomised to receive 2 g daily of NAC in two divided doses, or placebo, together with their normal dosage of antipsychotic agent.
Participants were assigned randomly and consecutively to treatment with NAC or placebo in a double blind fashion. The randomisation log was generated by an independent individual using the traditional coin tossing method. The investigators and clinicians remained blind until data analysis was completed. The person generating the randomisation schedule was not involved in participant interviews, either for participant eligibility or outcome measurements.
All participants remained on their usual antipsychotic medication for the duration of the trial. The dose of the primary therapy was monitored. Participants were recruited through advertisements, referral by case clinicians and through database screening. All participants provided written informed consent as part of complying with the protocol.
All randomised participants received two NAC (500 mg) capsules twice daily, to a total dose of 2 g daily, or matching placebo capsules. Human dosing can be up to 5 g/day without adverse effects (Louwerse E. S. et al., 1995). A daily dose that is within the range of efficacy in published clinical trials (Adair J. C. et al., 2001, Van Schooten F. J. et al., 2002, and Behr J, et al., 2002) was selected. Once per day dosing is desirable in the drug treatment of schizophrenia, where medication compliance is known to be a challenge in management. However, steady state plasma levels cannot be achieved with a once daily oral dose of NAC as the plasma half-life is only 2-3 hours (Holdiness M. R., 1991 and Kelly G. S., 1998). While a twice-daily (BID) dosing regimen would also not be expected to achieve steady state plasma levels, dose intervals beyond BID were considered to markedly increase the risk of non-compliance in this population.
To be included, the patients were required to meet Diagnostic and Statistical Manual of Mental Disorders, fourth edition (DSM-IV) (Association AP, 1994) criteria for schizophrenia and have a PANSS total score of ≧55, or at least two items in the positive and/or negative items being >3, or have a CGI-S≧3. They needed to have the capacity to consent to the study, and be aged between 18 and 65. Both inpatients and outpatients were eligible. Participants needed to be currently taking an antipsychotic agent and to be utilising effective contraception if female and of childbearing age. Exclusion criteria included patients with abnormal renal, hepatic, thyroid or haematological findings, patients with a systemic medical disorder including asthma, allergies or any history of bronchospasm, respiratory insufficiency and recent gastrointestinal ulcers and females who were positive on pregnancy screening testing at baseline. Participants who were taking a mood stabiliser (e.g. lithium, valproate and carbamazepine) were excluded as were those currently taking drugs that are known to prevent GSH depletion (500+mg of NAC/day, 200+ug of selenium/day or 500+IU of Vitamin E/day).
Withdrawal from the trial occurred if participants ceased taking their trial medication for seven consecutive days, or ceased effective contraception, or became pregnant. A change in primary antipsychotic from one medication to another required participants to be withdrawn from the study. Similarly, the addition of a mood stabiliser required withdrawal of the participant. Dose changes to existing medications were not an exclusion criterion, and this was monitored. […]

plasma glutathione = experiment: Parallel study of plasma glutathione at the trial dose of NAC; format: in vivo; details: NAC at this dose (2 g daily)
[1] = score at week 24, end of treatment
[2] = washout, week 28, LOCF ANCOVA with interaction term
[3] = week 8, LOCF ANCOVA, Placebo-NAC
[4] = week 24, LOCF ANCOVA, Placebo-NAC
[5] = week 24 to washout, week 28, LOCF ANCOVA
[6] = week 24 to washout, week 28, LOCF ANCOVA with interaction term

CC(=O)N[C@@H](CS)C(=O)O [NAC, N-acetyl cysteine]
PANSS General: NAC Mean Week 24 (SD) (schizophrenia; [1]): 28.8 (8.5)
PANSS Negative: NAC Mean Week 24 (SD) (schizophrenia; [1]): 13.7 (4.9)
PANSS Positive: NAC Mean Week 24 (SD) (schizophrenia; [1]): 14.5 (5.6)
PANSS Total: NAC Mean Week 24 (SD) (schizophrenia; [1]): 57.0 (16.1)
SAS: NAC Mean Week 24 (SD) (schizophrenia; [1]): 1.6 (1.3)
SOFAS: NAC Mean Week 24 (SD) (schizophrenia; [1]): 58.8 (12.7)
Onset of clinical benefit on CGI-I (scores significantly better than placebo) (schizophrenia; time from commencing treatment, Fisher's categorical analysis): ≤ 4 weeks
Onset of clinical benefit on CGI-S (scores significantly better than placebo) (schizophrenia; time from commencing treatment, MMRM): ≤ 2 weeks
AIMS: LS Mean Difference (95% CI) between placebo and NAC at post-treatment discontinuation (schizophrenia; washout, week 28, LOCF ANCOVA): −0.40 (−1.41, 0.61)
BAS: LS Mean Difference (95% CI) between placebo and NAC at post-treatment discontinuation (schizophrenia; washout, week 28, LOCF ANCOVA): −0.31 (−0.91, 0.29)^‡
GAF: LS Mean Difference (95% CI) between placebo and NAC at post-treatment discontinuation (schizophrenia; washout, week 28, LOCF ANCOVA): 0.61 (−3.5, 4.72)^‡
PANSS Positive: LS Mean Difference (95% CI) between placebo and NAC at post-treatment discontinuation (schizophrenia; washout, week 28, LOCF ANCOVA): 0.75 (−0.72, 2.22)
SAS: LS Mean Difference (95% CI) between placebo and NAC at post-treatment discontinuation (schizophrenia; washout, week 28, LOCF ANCOVA): −0.52 (−0.99, −0.05)*
SOFAS: LS Mean Difference (95% CI) between placebo and NAC at post-treatment discontinuation (schizophrenia; washout, week 28, LOCF ANCOVA): −1.17 (−4.89, 2.55)
PANSS General: LS Mean Difference (95% CI) between placebo and NAC at post-treatment discontinuation (schizophrenia; [2]): −0.85 (−3.45, 1.75)^‡
PANSS Negative: LS Mean Difference (95% CI) between placebo and NAC at post-treatment discontinuation (schizophrenia; [2]): −1.58 (−3.17, 0.00)^‡
PANSS Total: LS Mean Difference (95% CI) between placebo and NAC at post-treatment discontinuation (schizophrenia; [2]): −2.70 (−6.85, 1.45)^‡
AIMS: Between Placebo-NAC differences Week 8 LS Mean Difference (95% CI) (schizophrenia; [3]): −0.31 (−1.0, 0.41)
BAS: Between Placebo-NAC differences Week 8 LS Mean Difference (95% CI) (schizophrenia; [3]): 0.20 (−0.24, 0.64)
GAF: Between Placebo-NAC differences Week 8 LS Mean Difference (95% CI) (schizophrenia; [3]): −0.51 (−3.7, 2.7)
PANSS General: Between Placebo-NAC differences Week 8 LS Mean Difference (95% CI) (schizophrenia; [3]): −1.5 (−3.4, 0.34)
PANSS Negative: Between Placebo-NAC differences Week 8 LS Mean Difference (95% CI) (schizophrenia; [3]): −0.49 (−1.8, 0.80)
PANSS Positive: Between Placebo-NAC differences Week 8 LS Mean Difference (95% CI) (schizophrenia; [3]): −0.25 (−1.5, 0.98)
PANSS Total: Between Placebo-NAC differences Week 8 LS Mean Difference (95% CI) (schizophrenia; [3]): −2.6 (−6.1, 0.80)
SAS: Between Placebo-NAC differences Week 8 LS Mean Difference (95% CI) (schizophrenia; [3]): −0.06 (−0.39, 0.26)
SOFAS: Between Placebo-NAC differences Week 8 LS Mean Difference (95% CI) (schizophrenia; [3]): −0.20 (−3.9, 3.5)
AIMS: Between Placebo-NAC differences Week 24 LS Mean Difference (95% CI) (schizophrenia; [4]): 0.12 (−0.65, 0.89)
BAS: Between Placebo-NAC differences Week 24 LS Mean Difference (95% CI) (schizophrenia; [4]): 0.54 (0.08, 1.00)*
GAF: Between Placebo-NAC differences Week 24 LS Mean Difference (95% CI) (schizophrenia; [4]): −2.6 (−6.6, 1.3)
PANSS Positive: Between Placebo-NAC differences Week 24 LS Mean Difference (95% CI) (schizophrenia; [4]): 0.50 (−1.1, 2.1)
SAS: Between Placebo-NAC differences Week 24 LS Mean Difference (95% CI) (schizophrenia; [4]): 0.11 (−0.27, 0.50)
SOFAS: Between Placebo-NAC differences Week 24 LS Mean Difference (95% CI) (schizophrenia; [4]): −0.92 (−5.67, 3.82)
AIMS: NAC Mean Overall Change (95% CI) at post-treatment discontinuation (schizophrenia; [5]): −0.27 (−1.0, 0.50)
BAS: NAC Mean Overall Change (95% CI) at post-treatment discontinuation (schizophrenia; [5]): 0.42 (−0.02, 0.86)
CGI-S: NAC Mean Overall Change (95% CI) at post-treatment discontinuation (schizophrenia; [5]): −0.17 (−0.41, 0.08)
GAF: NAC Mean Overall Change (95% CI) at post-treatment discontinuation (schizophrenia; [5]): 0.37 (−2.7, 3.5)
PANSS Positive: NAC Mean Overall Change (95% CI) at post-treatment discontinuation (schizophrenia; [5]): −0.96 (−2.0, 0.12)
SAS: NAC Mean Overall Change (95% CI) at post-treatment discontinuation (schizophrenia; [5]): 0.30 (−0.06, 0.65)
SOFAS: NAC Mean Overall Change (95% CI) at post-treatment discontinuation (schizophrenia; [5]): −0.79 (−3.8, 2.2)
PANSS General: NAC Mean Overall Change (95% CI) at post-treatment discontinuation (schizophrenia; [6]): 0.18 (−1.7, 2.1)
PANSS Negative: NAC Mean Overall Change (95% CI) at post-treatment discontinuation (schizophrenia; [6]): 0.60 (−0.55, 1.7)
PANSS Total: NAC Mean Overall Change (95% CI) at post-treatment discontinuation (schizophrenia; [6]): 0.56 (−2.4, 3.6)
Proportion of patients clinically improved on the CGI-I scale referred to baseline (schizophrenia; week 28, after washout, NAC versus placebo): remained significantly greater
More subjects in the NAC treatment group showing improvement on CGI-I compared to placebo (schizophrenia; weeks 12, 16 and 24): ≈ 25%
Plasma glutathione (plasma glutathione): significantly increased
